Data published in patent publication US10376499B2, “Combination therapy for treatment of resistant bacterial infections” (priority 2014, dated 2019).

How the values were obtained:
[1] = test system: Citrobacter spp; experiment: MIC, recent Enterobacteriaceae clinical isolates: Citrobacter spp (Examples 7, 11); format: cell-based
[2] = test system: Enterobacter cloacae; experiment: MIC, recent Enterobacteriaceae clinical isolates: Enterobacter cloacae (Examples 7, 11); format: cell-based
[3] = test system: A. baumannii; experiment: MIC by broth microdilution (CLSI), panel of 60 A. baumannii clinical isolates (Example 1); conditions: Acinetobacter baumannii
[4] = test system: A. baumannii; experiment: MIC, 20 diverse recent strains of A. baumannii (Example 10); format: cell-based, Acinetobacter baumannii; conditions: N 20 A. baumannii strains
[5] = test system: Enterobacteriaceae; experiment: organism not typed; format: cell-based
[6] = test system: Klebsiella pneumoniae; experiment: MIC, recent Enterobacteriaceae clinical isolates: Klebsiella pneumoniae (Examples 7, 11)
[7] = test system: Escherichia coli; experiment: MIC, recent Enterobacteriaceae clinical isolates: Escherichia coli (Examples 7, 11)
[8] = test system: A. baumannii; experiment: MIC90 of common antibiotics+compound 1, 196 contemporary clinical isolates of A. baumannii (Example 4); conditions: B-lactam + Cmpd 1 (4 μg/mL)
[9] = test system: A. baumannii; experiment: Neutropenic mouse thigh and lung infection models; conditions: neutropenic CD-1 mice, subcutaneous q3h, sulbactam+compound 1 at 4:1 ratio, 24 h, isolate containing AmpC, OXA-66, OXA-72, TEM-1, FIG. 4

CC1(C)[C@H](C(=O)O)N2C(=O)C[C@H]2S1(=O)=O [Sulbactam, (2S,5R)-3,3-dimethyl-7-oxo-4-thia-1-azabicyclo[3.2.0]heptane-2-carboxylic acid 4,4-dioxide]
failed to show efficacy: efficacy (mean delta log CFU) [9]
> 64 µg/mL: MIC ([3]; strain ARC3882, OXA-23, NDM-1, OXA-10*) | MIC Max [4]
64 µg/mL: MIC ([1]; Citrobacter koseri ARC2001, ESBL) | MIC ([1]; Citrobacter koseri ARC2002, ESBL) | MIC50 [2] | MIC ([2]; Enterobacter cloacae ARC4444, AmpC+, MIR-8[I175L]) | MIC ([2]; Enterobacter cloacae ARC4458, AmpC+, ACT-2[V312M]) | MIC ([3]; strain ARC3493, OXA-40, OXA-66) | MIC ([3]; strain ARC5074, GES*, TEM-1, OXA-51) | MIC ([3]; strain ARC5082, OXA-66, OXA-23) | MIC90 [4] | MIC50 [5] | MIC50 [6] | MIC ([6]; Klebsiella pneumoniae ARC4457, SHV-11, DHA-1) | MIC ([6]; Klebsiella pneumoniae ARC4467, SHV-33, TEM-1, OXA-1, DHA-1) | MIC ([6]; Klebsiella pneumoniae ARC4468, SHV-1) | MIC ([6]; Klebsiella pneumoniae ARC4488, SHV-11, CTX-M15, OXA-1, TEM-1) | MIC50 ([7]; Escherichia coli) | MIC90 ([7]; Escherichia coli) | MIC ([7]; Escherichia coli, ATCC25922, Escherichia coli ARC4, none (ATCC 25922) CLSI control) | MIC ([7]; Escherichia coli, Escherichia coli ARC4421, CTX-M-55, TEM-1+, CMY-2+) | MIC ([7]; Escherichia coli, Escherichia coli ARC4429, TEM-1+, CMY-2+) | MIC ([7]; Escherichia coli, Escherichia coli ARC4449, CMY-2+, TEM-1+) | MIC ([7]; Escherichia coli, Escherichia coli ARC4450, TEM-1+, OXA-1+, CMY-2+) | MIC ([7]; Escherichia coli, Escherichia coli ARC4472, CMY-2+, TEM-1+) | MIC ([7]; Escherichia coli, Escherichia coli ARC4479, CMY-42+, OXA-1+, OXA-9+, TEM-1+) | MIC ([7]; Escherichia coli, Escherichia coli ARC4485, CMY-2+, OXA-1+, CTX-M-15+) | MIC ([7]; Escherichia coli, Escherichia coli ARC4487, SHV-5+, DHA-1+, TEM-1+, OXA-1+, CMY-2+)
0.5 µg/mL: MIC ([3]; strain ARC3491 (A. baumannii/calcoaceticus complex), OXA-215)
> 256 µg/mL: MIC90 ([1]; Citrobacter) | MIC ([1]; Citrobacter freundii ARC3522, AmpC, TEM-1, CMY65) | MIC90 [6] | MIC ([6]; Klebsiella pneumoniae ARC4427, SHV-1, OXA-1) | MIC ([6]; Klebsiella pneumoniae ARC4451, SHV-11, KPC-3) | MIC ([6]; Klebsiella pneumoniae ARC4460, SHV-11, CTX-M15, OXA-1, NDM-1) | MIC ([6]; Klebsiella pneumoniae ARC4476, SHV-11, KPC-2, OXA-9[W117*])
128 µg/mL: MIC ([2]; Enterobacter cloacae ARC4438, AmpC+) | MIC ([2]; Enterobacter cloacae ARC4473, SHV-5+, AmpC+, DHA-1+, TEM-1+) | MIC ([2]; Enterobacter cloacae ARC4489, AmpC+) | MIC90 ([2]; N 10) | MIC ([6]; Klebsiella pneumoniae ARC4420, SHV-11, SHV-12, DHA-1, OXA-1) | MIC ([6]; Klebsiella pneumoniae ARC4486, SHV-11, DHA-1, OXA-1[E69K]) | MIC ([7]; Escherichia coli) | MIC ([7]; Escherichia coli ARC4471, CMY-2+, OXA-1+, TEM-1+)
64 to 256 µg/mL: MIC range ([2]; N 10)
16 µg/mL: MIC50 [3] | MIC ([3]; strain ARC2461, OXA-66, TEM-1) | MIC ([3]; strain ARC2462, TEM-1, OXA-66) | MIC ([3]; strain ARC2598, OXA*, TEM-1, OXA-113) | MIC ([3]; strain ARC2675, SHV-5, OXA-113) | MIC ([3]; strain ARC2681, OXA-40, TEM-1, OXA-132) | MIC ([3]; strain ARC2778, OXA-40, TEM-1, OXA-65) | MIC ([3]; strain ARC2779 (A. baumannii/calcoaceticus complex), OXA-2, VIM-2) | MIC ([3]; strain ARC3484, TEM-1, OXA-23, OXA-64) | MIC ([3]; strain ARC3488, OXA*, OXA-68) | MIC ([3]; strain ARC3492, OXA-40, OXA-132, TEM-1) | MIC ([3]; strain ARC3513, TEM-1, OXA-23, OXA-65) | MIC ([3]; strain ARC5073, OXA-23, TEM-1, OXA-64, PER-1) | MIC ([3]; strain ARC5075, SHV-5, OXA-113) | MIC ([3]; strain ARC5083, OXA-66, OXA-23) | MIC ([3]; strain ARC5088, OXA-20, OXA-58, OXA-66) | MIC50 [4]
4 µg/mL: MIC ([3]; strain ARC2682, SHV-5, OXA-113) | MIC ([3]; strain ARC2780 (A. baumannii/calcoaceticus complex), OXA*, OXA-2, IMP-1) | MIC ([3]; strain ARC3487, OXA-20, OXA-58, OXA-66) | MIC ([3]; strain ARC3494, OXA-65) | MIC ([3]; strain ARC3659, OXA-23, OXA*) | MIC ([3]; strain ARC5084, IMP-4(B), OXA-58, OXA-65)
1 µg/mL: MIC ([3]; strain ARC593, OXA-98)
2 µg/mL: MIC ([3]; strain ARC2058, OXA-95) | MIC ([3]; strain ARC3489, OXA*, OXA-68) | MIC Min [4] | MIC90 [8]
32 µg/mL: MIC ([1]; Citrobacter braakii ARC3660, CTX-M-15) | MIC90 [3] | MIC ([3]; strain ARC2635, OXA-65, OXA-40, TEM-1) | MIC ([3]; strain ARC2636, OXA-65, OXA-40, TEM-1) | MIC ([3]; strain ARC2782, OXA-66, OXA-23, TEM-1, PER-1) | MIC ([3]; strain ARC3486, OXA-72, OXA-66, TEM-1) | MIC ([3]; strain ARC3490, TEM-1+, PSE-2, OXA-69) | MIC ([3]; strain ARC3495, OXA-40, OXA-109) | MIC ([3]; strain ARC3657, OXA-130) | MIC ([3]; strain ARC3658, OXA-66, PER-1, TEM-1, OXA-23) | MIC ([3]; strain ARC5076, TEM-1, OXA-23, OXA-66) | MIC ([3]; strain ARC5077, OXA*, OXA-72) | MIC ([3]; strain ARC5079, OXA-72, OXA-65) | MIC ([3]; strain ARC5080, OXA-71, OXA-40) | MIC ([3]; strain ARC5085, OXA*, TEM-1) | MIC ([3]; strain ARC5086, OXA*, TEM-1, OXA-72, OXA-66) | MIC ([3]; strain ARC5087, OXA-66, OXA-23) | MIC ([3]; strain ARC5089, PER*, TEM-1, OXA-23, OXA-66) | MIC ([6]; Klebsiella pneumoniae ARC4482, SHV-27[A122V], OXA-1) | MIC ([7]; Escherichia coli, Escherichia coli ARC4416, CTX-M-14+, TEM-1+) | MIC ([7]; Escherichia coli, Escherichia coli ARC4418, CTX-M-14+, CMY-2+) | MIC ([7]; Escherichia coli, Escherichia coli ARC4419, SHV-12+) | MIC ([7]; Escherichia coli, Escherichia coli ARC4426, TEM-1+, CMY-2+) | MIC ([7]; Escherichia coli, Escherichia coli ARC4436, CTX-M-14+, TEM-1+) | MIC ([7]; Escherichia coli, Escherichia coli ARC4452, SHV-12+) | MIC ([7]; Escherichia coli, Escherichia coli ARC4455, SHV-12+) | MIC ([7]; Escherichia coli, Escherichia coli ARC4465, CMY-2+) | MIC ([7]; Escherichia coli, Escherichia coli ARC4477, CTX-M-15+, TEM-1+) | MIC ([7]; Escherichia coli, Escherichia coli ARC4478, CTX-M-15+, CMY-2+)
256 µg/mL: MIC50 ([1]; Citrobacter) | MIC ([1]; Citrobacter freundii ARC3883, KPC-2) | MIC ([1]; Citrobacter freundii ARC3884, KPC-2) | MIC ([1]; Citrobacter freundii ARC3885, AmpH, TEM-1, SHV-5, CMY-6, CMY-13) | MIC ([2]; Enterobacter cloacae ARC4492, AmpC+) | MIC90 [5] | MIC ([6]; Klebsiella pneumoniae ARC4490, SHV-11, CTX-M15, KPC-2, OXA-1)
